According to patent publication US9382222B2, “Benzyl sulfonamide derivatives as RORc modulators” (Genentech, Inc., priority 2012, dated 2016):

Each compound was assayed against T1, RORc ligand binding domain (Homo sapiens, UniProt P51449) (assay: In Vitro RORc Ligand Binding Assay). Conditions: displacement of 25-[3H]hydroxycholesterol (6 nM), 0.6 ug/mL RORc receptor, 3 h at 25° C.
T1 construct: host or cells: E. coli
T1 sequence (P51449 269-508 limits assumed): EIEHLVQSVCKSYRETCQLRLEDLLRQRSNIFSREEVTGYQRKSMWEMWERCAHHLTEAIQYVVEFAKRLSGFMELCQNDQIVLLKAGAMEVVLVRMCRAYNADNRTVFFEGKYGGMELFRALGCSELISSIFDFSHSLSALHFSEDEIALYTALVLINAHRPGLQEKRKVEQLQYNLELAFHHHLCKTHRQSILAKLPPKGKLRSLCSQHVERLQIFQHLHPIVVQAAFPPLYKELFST
Experimental: In Vitro RORc Ligand Binding Assay This assay was used to determine a compound's potency in inhibiting activity of RORc by determining, Kiapp, IC50, or percent inhibition values. […] On day of the assay, 100 uL of 0.05% CHAPS (in deionized H2O) was added to all wells of the GFB Unifilter plate and allowed soak for 1 h. A wash buffer of 50 mM HEPES (pH 7.4), 150 mM NaCl, and 5 mM MgCl2 was prepared to wash the filter plate. To prepare an assay buffer, BSA was added to the wash buffer to reach 0.01% and DTT was added to reach 1 mM. […] The 20× compound stocks were diluted in DMSO with Assay Buffer 4-fold to reach 5× the final test concentration in 25% DMSO (10 uL compound+30 uL Assay Buffer). Solutions were mixed by aspiration several times with a pipette set on 50 uL volume. For the assay, 10 uL of 5× compound stock solutions in 25% DMSO were added to the assay plate in duplicate. For two point screening, 10 mM stock compound solutions were diluted in DMSO to obtain 200 uM (20× the high test concentration) and then diluted 10-fold further to reach 20 uM (20× the low test concentration). The 20× stocks were diluted 4-fold with Assay Buffer (10 uL compound+30 uL Assay Buffer) to reach 5× the test concentrations (50 uM and 5 uM) and 10 uL were added to two assay plates for the duplicate wells. […] Add 20 uL to all wells to reach 6 nM final concentration in the assay. […] Stock receptor solution was diluted in assay buffer to obtain 1.5 ug/mL in Assay Buffer. 20 uL was added to all wells. For No Receptor samples, 20 uL Assay Buffer was substituted for receptor solution. […] Following addition to the wells, the plates were incubated 3 h at 25° C. Using a Packard Filtermate Harvester, the filter plate were washed 4 times following transfer of the incubated samples. Plates were dry-filtered completely (2 h at 50° C. or overnight at room temperature). 50 uL Microscint 0 was added to all wells and read on Topcount protocol Inverted. […] For NSB wells, 1 uM 25-hydroxycholesterol was also present.

IC50	Structure (SMILES)
528 nM	CC(C)CN(c1ccccc1Cl)S(=O)(=O)c1cccc(N2CCN(S(C)(=O)=O)CC2)c1 [Compound 25, N-(2-Chloro-phenyl)-N-isobutyl-3-(4-methanesulfonyl-piperazin-1-yl)-benzenesulfonamide]
414 nM	CC(C)CN(c1cccc(Cl)c1)S(=O)(=O)c1cccc(N2CCN(S(C)(=O)=O)CC2)c1 [Compound 26, N-(3-Chloro-phenyl)-N-isobutyl-3-(4-methanesulfonyl-piperazin-1-yl)-benzenesulfonamide]
33 nM	CC(C)CN(c1cccc(Cl)c1)S(=O)(=O)c1ccc(N2CCN(S(C)(=O)=O)CC2)cc1F [Compound 27, N-(3-Chloro-phenyl)-2-fluoro-N-isobutyl-4-(4-methanesulfonyl-piperazin-1-yl)-benzenesulfonamide]
1600 nM	CC(=O)N1CCN(c2ccc(S(=O)(=O)N(c3cccc(Cl)c3)C(C)C)cc2)CC1 [Compound 28, 4-(4-Acetyl-piperazin-1-yl)-N-(3-chloro-phenyl)-N-isopropyl-benzenesulfonamide]
36 nM	CC(C)CN(c1cccc(Cl)c1)S(=O)(=O)c1ccc(N2CCN(S(C)(=O)=O)CC2)c(F)c1 [Compound 29, N-(3-Chloro-phenyl)-3-fluoro-N-isobutyl-4-(4-methanesulfonyl-piperazin-1-yl)-benzenesulfonamide]
149 nM	CC(=O)N1CCN(c2ccc(S(=O)(=O)N(c3cccc(Cl)c3)C3CCC3)cc2)CC1 [Compound 30, 4-(4-Acetyl-piperazin-1-yl)-N-(3-chloro-phenyl)-N-cyclobutyl-benzenesulfonamide]
258 nM	CC(=O)N1CCC(Nc2ccc(S(=O)(=O)N(CC(C)C)c3cccc(Cl)c3)cc2)CC1 [Compound 31, 4-(1-Acetyl-piperidin-4-ylamino)-N-(3-chloro-phenyl)-N-isobutyl-benzenesulfonamide]
7 nM	CC(C)CN(c1cccc(Cl)c1)S(=O)(=O)c1ccc(NC2CCN(S(C)(=O)=O)CC2)cc1 [Compound 32, N-(3-Chloro-phenyl)-N-isobutyl-4-(1-methanesulfonyl-piperidin-4-ylamino)-benzenesulfonamide]
198 nM	CC(=O)N1CCC(Oc2ccc(S(=O)(=O)N(CC(C)C)c3cccc(Cl)c3)cc2)CC1 [Compound 33, 4-(1-Acetyl-piperidin-4-yloxy)-N-(3-chloro-phenyl)-N-isobutyl-benzenesulfonamide]
8 nM	CC(C)CN(c1cccc(Cl)c1)S(=O)(=O)c1ccc(OC2CCN(S(C)(=O)=O)CC2)cc1 [Compound 34, N-(3-Chloro-phenyl)-N-isobutyl-4-(1-methanesulfonyl-piperidin-4-yloxy)-benzenesulfonamide]
108 nM	CC(C)CN(c1cccc(Cl)c1)S(=O)(=O)c1ccc(OC2CCN(C(N)=O)CC2)cc1 [Compound 35, 4-{4-[(3-Chloro-phenyl)-isobutyl-sulfamoyl]-phenoxy}-piperidine-1-carboxylic acid amide]
66 nM	CC(C)CN(c1cccc(Cl)c1)S(=O)(=O)c1ccc(NC2CCN(C(N)=O)CC2)cc1 [Compound 36, 4-{4-[(3-Chloro-phenyl)-isobutyl-sulfamoyl]-phenylamino}-piperidine-1-carboxylic acid amide]
305 nM	CC(=O)N1CCN(c2ccc(S(=O)(=O)N(CC(F)(F)F)c3cccc(Cl)c3)cc2)CC1 [Compound 37, 4-(4-Acetyl-piperazin-1-yl)-N-(3-chloro-phenyl)-N-(2,2,2-trifluoro-ethyl)-benzenesulfonamide]
1400 nM	CC(=O)N1CCN(c2ccc(S(=O)(=O)N(CC(F)F)c3cccc(Cl)c3)cc2)CC1 [Compound 38, 4-(4-Acetyl-piperazin-1-yl)-N-(3-chloro-phenyl)-N-(2,2-difluoro-ethyl)-benzenesulfonamide]
191 nM	CC(C)CN(c1cccc(Cl)c1)S(=O)(=O)c1ccc(OC2CCN(S(=O)(=O)N(C)C)CC2)cc1 [Compound 39, 4-{4-[(3-Chloro-phenyl)-isobutyl-sulfamoyl]-phenoxy}-piperidine-1-sulfonic acid dimethylamide]
480 nM	CC(C)CN(c1cccc(Cl)c1)S(=O)(=O)c1cccc(NC2CCN(S(C)(=O)=O)CC2)c1 [Compound 40, N-(3-Chloro-phenyl)-N-isobutyl-3-(1-methanesulfonyl-piperidin-4-ylamino)-benzenesulfonamide]
28 nM	CC(=O)N1CCN(c2ccc(S(=O)(=O)N(CC(C)C)c3ccccc3C(F)(F)F)cc2)CC1 [Compound 41, 4-(4-Acetyl-piperazin-1-yl)-N-isobutyl-N-(2-trifluoromethyl-phenyl)-benzenesulfonamide]
164 nM	CC(C)CN(c1cccc(Cl)c1)S(=O)(=O)c1ccc(O[C@@H]2CCCN(S(C)(=O)=O)C2)cc1 [Compound 42, N-(3-Chloro-phenyl)-N-isobutyl-4-((R)-1-methanesulfonyl-piperidin-3-yloxy)-benzenesulfonamide]
281 nM	CC(C)CN(c1cccc(Cl)c1)S(=O)(=O)c1ccc(O[C@H]2CCCN(S(C)(=O)=O)C2)cc1 [Compound 43, N-(3-Chloro-phenyl)-N-isobutyl-4-((S)-1-methanesulfonyl-piperidin-3-yloxy)-benzenesulfonamide]
117 nM	CC(C)CN(c1cccc(Cl)c1)S(=O)(=O)c1ccc(N[C@@H]2CCCN(S(C)(=O)=O)C2)cc1 [Compound 44, N-(3-Chloro-phenyl)-N-isobutyl-4-((R)-1-methanesulfonyl-piperidin-3-ylamino)-benzenesulfonamide]
271 nM	CC(C)CN(c1cccc(Cl)c1)S(=O)(=O)c1ccc(N[C@H]2CCCN(S(C)(=O)=O)C2)cc1 [Compound 45, N-(3-Chloro-phenyl)-N-isobutyl-4-((S)-1-methanesulfonyl-piperidin-3-ylamino)-benzenesulfonamide]
33 nM	CC(C)CN(c1ccccc1C(F)(F)F)S(=O)(=O)c1ccc(NC2CCN(S(C)(=O)=O)CC2)cc1 [Compound 46, N-Isobutyl-4-(1-methanesulfonyl-piperidin-4-ylamino)-N-(2-trifluoromethyl-phenyl)-benzenesulfonamide]
8 nM	CC(C)CN(c1cccc(F)c1F)S(=O)(=O)c1ccc(OC2CCN(S(C)(=O)=O)CC2)cc1 [Compound 49, N-(2,3-Difluoro-phenyl)-N-isobutyl-4-(1-methanesulfonyl-piperidin-4-yloxy)-benzenesulfonamide]
9 nM	CC(C)CN(c1ccc(F)cc1F)S(=O)(=O)c1ccc(OC2CCN(S(C)(=O)=O)CC2)cc1 [Compound 50, N-(2,4-Difluoro-phenyl)-N-isobutyl-4-(1-methanesulfonyl-piperidin-4-yloxy)-benzenesulfonamide]
8 nM	CC(C)CN(c1cc(F)ccc1F)S(=O)(=O)c1ccc(OC2CCN(S(C)(=O)=O)CC2)cc1 [Compound 51, N-(2,5-Difluoro-phenyl)-N-isobutyl-4-(1-methanesulfonyl-piperidin-4-yloxy)-benzenesulfonamide]
11 nM	CC(C)CN(c1c(F)cccc1F)S(=O)(=O)c1ccc(OC2CCN(S(C)(=O)=O)CC2)cc1 [Compound 52, N-(2,6-Difluoro-phenyl)-N-isobutyl-4-(1-methanesulfonyl-piperidin-4-yloxy)-benzenesulfonamide]
299 nM	CC(C)CN(c1ccc(F)cc1)S(=O)(=O)c1ccc(C(=O)N2CCN(S(C)(=O)=O)CC2)cc1 [Compound 53, N-(4-Fluoro-phenyl)-N-isobutyl-4-(4-methanesulfonyl-piperazine-1-carbonyl)-benzenesulfonamide]
244 nM	CC(=O)N1CCN(c2ccc(S(=O)(=O)N(Cc3cccc(C(F)(F)F)c3)CC(C)C)cc2)CC1 [Compound 58, 4-(4-Acetyl-piperazin-1-yl)-N-isobutyl-N-(3-trifluoromethyl-benzyl)-benzenesulfonamide]
483 nM	CC(C)CN([C@H](C)c1ccccc1)S(=O)(=O)c1ccc(N2CCN(S(C)(=O)=O)CC2)cc1 [Compound 62, N-Isobutyl-4-(4-methanesulfonyl-piperazin-1-yl)-N-((R)-1-phenyl-ethyl)-benzenesulfonamide]
39 nM	CC(C)CN([C@@H](C)c1ccccc1)S(=O)(=O)c1ccc(N2CCN(S(C)(=O)=O)CC2)cc1 [Compound 63, N-Isobutyl-4-(4-methanesulfonyl-piperazin-1-yl)-N-((S)-1-phenyl-ethyl)-benzenesulfonamide]
